# Data from patent US9624170B2, “4-(piperrazin-1-yl)-pyrrolidin-2-one compounds as monoacylglycerol lipase (MAGL) inhibitors” (TAKEDA PHARMACEUTICAL COMPANY LIMITED, priority 2013, dated 2017).
# Biological target: T1, human MAGL (His-hMAGL) (Homo sapiens, UniProt Q99685)
# T1 construct: made in house; host or cells: Escherichia coli BL21(DE3)
# T1 sequence (Q99685 1-303): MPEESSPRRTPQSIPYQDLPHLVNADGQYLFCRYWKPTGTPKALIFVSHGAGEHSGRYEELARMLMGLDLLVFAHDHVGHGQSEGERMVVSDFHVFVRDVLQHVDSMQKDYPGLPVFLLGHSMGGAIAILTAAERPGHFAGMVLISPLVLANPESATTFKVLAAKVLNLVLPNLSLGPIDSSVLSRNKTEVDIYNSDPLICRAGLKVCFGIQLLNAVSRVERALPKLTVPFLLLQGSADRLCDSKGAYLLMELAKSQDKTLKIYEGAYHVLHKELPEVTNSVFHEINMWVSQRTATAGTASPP
# Assay: Measurement of MAGL inhibitory activity by mass spectrometry
# Type: biochemical
# Details: MAGL inhibitory rate, test compound 10 μM, His-hMAGL, substrate 2-arachidonylglycerol, RapidFire-mass spectrometry
# Outline: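 His-tagged human MAGL was reacted with 150 μM 2-arachidonylglycerol substrate (stock, added by 5 μL) for 10 min at room temperature, then stopped with formic acid. Arachidonic acid product was quantified by RapidFire–triple-quadrupole MS in negative SRM mode, corrected by arachidonic acid-d8, and converted to percent inhibition.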
row,inhibition at 10 µM,Structure (SMILES)
1,99%,"O=C(c1nccs1)N1CCN(C2CC(=O)N(c3ccc4c(ccn4-c4nccc(C(F)(F)F)n4)c3)C2)CC1 (centres unmarked) [Example 281, 4-(4-(1,3-thiazol-2-ylcarbonyl)piperazin-1-yl)-1-(1-(4-(trifluoromethyl)pyrimidin-2-yl)-1H-indol-5-yl)pyrrolidin-2-one]"
2,100%,"O=C(c1nccs1)N1CCN(C2CC(=O)N(c3cccc(-c4c(F)cc(F)cc4F)c3)C2)CC1 (centres unmarked) [Example 282, 4-(4-(1,3-thiazol-2-ylcarbonyl)piperazin-1-yl)-1-(2′,4′,6′-trifluorobiphenyl-3-yl)pyrrolidin-2-one]"
3,101%,"O=C(c1nccs1)N1CCN(C2CC(=O)N(c3cccc(-c4ccc(Cl)cc4Cl)c3)C2)CC1 (centres unmarked) [Example 283, 1-(2′,4′-dichlorobiphenyl-3-yl)-4-(4-(1,3-thiazol-2-ylcarbonyl)piperazin-1-yl)pyrrolidin-2-one]"
4,101%,"O=C(c1nccs1)N1CCN(C2CC(=O)N(c3cccc(-c4ccc(F)c(Cl)c4)c3)C2)CC1 (centres unmarked) [Example 284, 1-(3′-chloro-4′-fluorobiphenyl-3-yl)-4-(4-(1,3-thiazol-2-ylcarbonyl)piperazin-1-yl)pyrrolidin-2-one]"
5,101%,"O=C(c1nccs1)N1CCN(C2CC(=O)N(c3cccc(-c4ccccc4-c4ccccc4)c3)C2)CC1 (centres unmarked) [Example 285, 1-(1,1′:2′,1″-terphenyl-3-yl)-4-(4-(1,3-thiazol-2-ylcarbonyl)piperazin-1-yl)pyrrolidin-2-one]"
6,91%,"O=C(O)c1ccc(-c2cccc(N3CC(N4CCN(C(=O)c5nccs5)CC4)CC3=O)c2)cc1 (centres unmarked) [Example 286, 3′-(2-oxo-4-(4-(1,3-thiazol-2-ylcarbonyl)piperazin-1-yl)pyrrolidin-1-yl)biphenyl-4-carboxylic acid]"
7,103%,"O=C(c1nccs1)N1CCN(C2CC(=O)N(c3cccc(-c4cccc(C(F)(F)F)c4)c3)C2)CC1 (centres unmarked) [Example 287, 4-(4-(1,3-thiazol-2-ylcarbonyl)piperazin-1-yl)-1-(3′-(trifluoromethyl)biphenyl-3-yl)pyrrolidin-2-one]"
8,97%,"O=C(c1nccs1)N1CCN(C2CC(=O)N(c3cccc(-c4ccc(C(F)(F)F)cc4)c3)C2)CC1 (centres unmarked) [Example 288, 4-(4-(1,3-thiazol-2-ylcarbonyl)piperazin-1-yl)-1-(4′-(trifluoromethyl)biphenyl-3-yl)pyrrolidin-2-one]"
9,103%,"CCOc1ccccc1-c1cccc(N2CC(N3CCN(C(=O)c4nccs4)CC3)CC2=O)c1 (centres unmarked) [Example 289, 1-(2′-ethoxybiphenyl-3-yl)-4-(4-(1,3-thiazol-2-ylcarbonyl)piperazin-1-yl)pyrrolidin-2-one]"
10,101%,"O=C(c1nccs1)N1CCN(C2CC(=O)N(c3cccc(-c4ccc(F)c(F)c4)c3)C2)CC1 (centres unmarked) [Example 290, 1-(3′,4′-difluorophenyl-3-yl)-4-(4-(1,3-thiazol-2-ylcarbonyl)piperazin-1-yl)pyrrolidin-2-one]"
11,104%,"O=C(c1nccs1)N1CCN(C2CC(=O)N(c3cccc(-c4ccccc4Oc4ccccc4)c3)C2)CC1 (centres unmarked) [Example 291, 1-(2′-phenoxybiphenyl-3-yl)-4-(4-(1,3-thiazol-2-ylcarbonyl)piperazin-1-yl)pyrrolidin-2-one]"
12,93%,"O=C(c1nccs1)N1CCN(C2CC(=O)N(c3cccc(-c4ccc(OC(F)(F)F)cc4)c3)C2)CC1 (centres unmarked) [Example 292, 4-(4-(1,3-thiazol-2-ylcarbonyl)piperazin-1-yl)-1-(4′-(trifluoromethoxy)biphenyl-3-yl)pyrrolidin-2-one]"
13,103%,"O=C(c1nccs1)N1CCN(C2CC(=O)N(c3cccc(-c4cccc(Cl)c4Cl)c3)C2)CC1 (centres unmarked) [Example 293, 1-(2′,3′-dichlorophenyl-3-yl)-4-(4-(1,3-thiazol-2-ylcarbonyl)piperazin-1-yl)pyrrolidin-2-one]"
14,100%,"O=C(c1nccs1)N1CCN(C2CC(=O)N(c3cccc(-c4csc5ccccc45)c3)C2)CC1 (centres unmarked) [Example 294, 1-(3-(1-benzothiophen-3-yl)phenyl)-4-(4-(1,3-thiazol-2-ylcarbonyl)piperazin-1-yl)pyrrolidin-2-one]"
15,98%,"N#Cc1ccc(-c2cccc(N3CC(N4CCN(C(=O)c5nccs5)CC4)CC3=O)c2)cc1 (centres unmarked) [Example 295, 3′-(2-oxo-4-(4-(1,3-thiazol-2-ylcarbonyl)piperazin-1-yl)pyrrolidin-1-yl)biphenyl-4-carbonitrile]"
16,102%,"O=C(c1nccs1)N1CCN(C2CC(=O)N(c3cccc(-c4ccc(F)cc4F)c3)C2)CC1 (centres unmarked) [Example 296, 1-(2′,4′-difluorobiphenyl-3-yl)-4-(4-(1,3-thiazol-2-ylcarbonyl)piperazin-1-yl)pyrrolidin-2-one]"

row,inhibition at 10 µM,Structure (SMILES)
1,103%,"O=C(c1nccs1)N1CCN(C2CC(=O)N(c3cccc(-c4cccc(OC(F)(F)F)c4)c3)C2)CC1 (centres unmarked) [Example 297, 4-(4-(1,3-thiazol-2-ylcarbonyl)piperazin-1-yl)-1-(3′-(trifluoromethoxy)biphenyl-3-yl)pyrrolidin-2-one]"
2,101%,"O=C(c1nccs1)N1CCN(C2CC(=O)N(c3cccc(-c4ccccc4OC(F)(F)F)c3)C2)CC1 (centres unmarked) [Example 298, 4-(4-(1,3-thiazol-2-ylcarbonyl)piperazin-1-yl)-1-(2′-(trifluoromethoxy)biphenyl-3-yl)pyrrolidin-2-one]"
3,102%,"O=C(c1nccs1)N1CCN(C2CC(=O)N(c3cccc(-c4cccc(F)c4F)c3)C2)CC1 (centres unmarked) [Example 299, 1-(2′,3′-difluorobiphenyl-3-yl)-4-(4-(1,3-thiazol-2-ylcarbonyl)piperazin-1-yl)pyrrolidin-2-one]"
4,101%,"O=C(c1nccs1)N1CCN(C2CC(=O)N(c3cccc(-c4cc(Cl)ccc4Cl)c3)C2)CC1 (centres unmarked) [Example 300, 1-(2′,5′-dichlorobiphenyl-3-yl)-4-(4-(1,3-thiazol-2-ylcarbonyl)piperazin-1-yl)pyrrolidin-2-one]"
5,104%,"Cc1cc(F)ccc1-c1cccc(N2CC(N3CCN(C(=O)c4nccs4)CC3)CC2=O)c1 (centres unmarked) [Example 301, 1-(4′-fluoro-2′-methylbiphenyl-3-yl)-4-(4-(1,3-thiazol-2-ylcarbonyl)piperazin-1-yl)pyrrolidin-2-one]"
6,98%,"CS(=O)(=O)Nc1ccccc1-c1cccc(N2CC(N3CCN(C(=O)c4nccs4)CC3)CC2=O)c1 (centres unmarked) [Example 302, N-(3′-(2-oxo-4-(4-(1,3-thiazol-2-ylcarbonyl)piperazin-1-yl)pyrrolidin-1-yl)biphenyl-2-yl)methanesulfonamide]"
7,88%,"CC(=O)Nc1ccccc1-c1cccc(N2CC(N3CCN(C(=O)c4nccs4)CC3)CC2=O)c1 (centres unmarked) [Example 303, N-(3′-(2-oxo-4-(4-(1,3-thiazol-2-ylcarbonyl)piperazin-1-yl)pyrrolidin-1-yl)biphenyl-2-yl)acetamide]"
8,100%,"O=C(c1nccs1)N1CCN(C2CC(=O)N(c3cccc(-c4ccc(Cl)cc4F)c3)C2)CC1 (centres unmarked) [Example 304, 1-(4′-chloro-2′-fluorobiphenyl-3-yl)-4-(4-(1,3-thiazol-2-ylcarbonyl)piperazin-1-yl)pyrrolidin-2-one]"
9,96%,"O=C(c1nccs1)N1CCN(C2CC(=O)N(c3cccc(-c4ccc(C(F)(F)F)cc4Cl)c3)C2)CC1 (centres unmarked) [Example 305, 1-(2′-chloro-4′-(trifluoromethyl)biphenyl-3-yl)-4-(4-(1,3-thiazol-2-ylcarbonyl)piperazin-1-yl)pyrrolidin-2-one]"
10,102%,"O=C(c1nccs1)N1CCN(C2CC(=O)N(c3cccc(-c4ccccc4N4CCOCC4)c3)C2)CC1 (centres unmarked) [Example 306, 1-(2′-(morpholin-4-yl)biphenyl-3-yl)-4-(4-(1,3-thiazol-2-ylcarbonyl)piperazin-1-yl)pyrrolidin-2-one]"
11,103%,"O=C(c1nccs1)N1CCN(C2CC(=O)N(c3cccc(-c4cccc5[nH]ccc45)c3)C2)CC1 (centres unmarked) [Example 307, 1-(3-(1H-indol-4-yl)phenyl)-4-(4-(1,3-thiazol-2-ylcarbonyl)piperazin-1-yl)pyrrolidin-2-one]"
12,98%,"O=C(O)c1cccc(-c2cccc(N3CC(N4CCN(C(=O)c5nccs5)CC4)CC3=O)c2)c1 (centres unmarked) [Example 308, 3′-(2-oxo-4-(4-(1,3-thiazol-2-ylcarbonyl)piperazin-1-yl)pyrrolidin-1-yl)biphenyl-3-carboxylic acid]"
13,103%,"CC(C)Oc1ccccc1-c1cccc(N2CC(N3CCN(C(=O)c4nccs4)CC3)CC2=O)c1 (centres unmarked) [Example 309, 1-(2′-isopropoxybiphenyl-3-yl)-4-(4-(1,3-thiazol-2-ylcarbonyl)piperazin-1-yl)pyrrolidin-2-one]"
14,98%,"COc1cc(C(F)(F)F)ccc1-c1cccc(N2CC(N3CCN(C(=O)c4nccs4)CC3)CC2=O)c1 (centres unmarked) [Example 310, 1-(2′-methoxy-4′-(trifluoromethyl)biphenyl-3-yl)-4-(4-(1,3-thiazol-2-ylcarbonyl)piperazin-1-yl)pyrrolidin-2-one]"
15,103%,"O=C(c1nccs1)N1CCN(C2CC(=O)N(c3cccc(-c4cccc5ccccc45)c3)C2)CC1 (centres unmarked) [Example 311, 1-(3-(1-naphthyl)phenyl)-4-(4-(1,3-thiazol-2-ylcarbonyl)piperazin-1-yl)pyrrolidin-2-one]"
16,101%,Cc1nn(C)c(C)c1-c1cccc(N2CC(N3CCN(C(=O)c4nccs4)CC3)CC2=O)c1 (centres unmarked) [Example 312]
